The test system of test [1] is 3A-FDH/3A-LDH particles, unmodified (co-immobilized Cry3Aa-formate dehydrogenase and Cry3Aa-leucine dehydrogenase). Kind of test: NADH binding capacity of 3A-FDH/3A-LDH particles without PEI. To be noted: absorbance at 340 nm.
Test [2] deals with T1, PEI-modified Cry3Aa (3A-PEI) crystals; Cry3Aa, SEQ ID NO: 4 (Bacillus thuringiensis subsp. tenebrionis, UniProt P0A379, F640R/R158P).
T1 construct: made in house; host or cells: Bacillus thuringiensis B7407G
Kind of test: Cofactor binding capacity of 3A-PEI crystals. To be noted: 0.25 mM cofactor, 20 μg crystals, 10° C., 30 min. Here is the method:
To compare the binding capacity of 3A-PEI crystals with Cry3Aa and Pos3Aa crystals, the same experiment was conducted as the control.
To evaluate whether 3A-PEI crystals could binding to other phosphorylated cofactors, PLP, NAD^+, NADP^+, NADPH, FADH2, CoA, Riboflavin, and TPP (each at a concentration of 0.25 mM) were incubated with 20 μg of 3A-PEI crystals for 30 min under slow rotation at 10° C. Subsequently, the crystals were centrifugated and the amount of bound cofactor within the crystals was quantified.

Test [3] has as its target T2, PEI-modified CadA-Cry1Ab fusion particles (E. coli lysine decarboxylase CadA, NP_418555, fused to Cry1Ab) (Escherichia coli, UniProt P0A9H3).
T2 construct: made in house; host or cells: E. coli BL21(DE3)
Kind of test: PLP binding capacity of PEI-CadA-Cry1Ab particles. Here is the method:
For binding analysis, PEI-CadA-Cry1Ab fusion particles (50 μg/mL) were incubated with increasing concentrations of PLP (0-2 mM) for 25 min under gentle rotation at room temperature. After incubation, the particles were centrifuged at 8000 rpm for 10 min, and the unbound PLP in the supernatant was quantified. A calibration curve, generated from PLP standards treated under identical conditions, was used to determine the amount of PLP bound to the particles. To stabilize the absorbance peak of PLP following Schiff base formation with the protein, 1 M HCl was added to the unbound PLP supernatants in a 1:1 (v/v) ratio. After a 5-minute incubation, the absorbance of the unbound PLP was measured at 294 nm using an Eppendorf Bio-Spectrometer (Eppendorf AG. Germany). The PLP concentration was determined using a standard curve generated for various PLP amounts treated with 1M HCL based on the Beer-Lambert law.

Test [4] has as its target T3, CadA-Cry1Ab fusion particles, unmodified (E. coli lysine decarboxylase CadA, NP_418555, fused to Cry1Ab) (Escherichia coli, UniProt P0A9H3).
T3 construct: made in house; host or cells: E. coli BL21(DE3)
Kind of test: PLP binding capacity of unmodified CadA-Cry1Ab particles. The following applies: before PEI modification.

On to `NC(=O)C1=CN([C@@H]2O[C@H](COP(=O)(O)OP(=O)(O)OC[C@H]3O[C@@H](n4cnc5c(N)ncnc54)[C@H](O)[C@@H]3O)[C@@H](O)[C@H]2O)C=CC1` [NADH, nicotinamide adenine dinucleotide], for which the NADH retained in test [1] is given as ~ 4.2±0.3 μmol NADH per g.

Consider `Cc1ncc(COP(=O)(O)O)c(C=O)c1O` [PLP, Pyridoxal 5′-phosphate], for which the “binding affinity (binding capacity of cofactor)” value in test [2] is 650±2 μmol/g of support. Also, the PLP binding capacity in test [3] (PLP 0-2 mM, 25 min, room temperature) is given as ~ 1300 μmol/g; in test [4], ~ 100 μmol/g. Further, the “PLP binding capacity enhancement by PEI modification” value in test [3] (vs unmodified CadA-Cry1Ab) is recorded as 13 fold.

With `Cc1ncc(C[n+]2csc(CCOP(=O)(O)OP(=O)(O)O)c2C)c(N)n1` [TPP], the “binding affinity (binding capacity of cofactor)” value in test [2] is reported as 160±1 μmol/g of support.

The values above are taken from patent US20260242428A1, “POLYETHYLENIMINE-MODIFIED CRY PROTEINS AND THEIR USE” (priority 2024, published 2026).
